Results: PMC6312923 (Life Science Alliance, 2018)

B1: Cdt2^PIP-3A: Cdt2 with I709, Y712, and F713 all mutated to alanine (protein, UniProt Q9NZJ0 1-730, looked up, variant I709A Y712A F713A)
Denticleless protein homolog: MLFNSVLRQPQLGVLRNGWSSQYPLQSLLTGYQCSGNDEHTSYGETGVPVPPFGCTFSSAPNMEHVLAVANEEGFVRLYNTESQSFRKKCFKEWMAHWNAVFDLAWVPGELKLVTAAGDQTAKFWDVKAGELIGTCKGHQCSLKSVAFSKFEKAVFCTGGRDGNIMVWDTRCNKKDGFYRQVNQISGAHNTSDKQTPSKPKKKQNSKGLAPSVDFQQSVTVVLFQDENTLVSAGAVDGIIKVWDLRKNYTAYRQEPIASKSFLYPGSSTRKLGYSSLILDSTGSTLFANCTDDNIYMFNMTGLKTSPVAIFNGHQNSTFYVKSSLSPDDQFLVSGSSDEAAYIWKVSTPWQPPTVLLGHSQEVTSVCWCPSDFTKIATCSDDNTLKIWRLNRGLEEKPGGDKLSTVGWASQKKKESRPGLVTVTSSQSTPAKAPRAKCNPSNSSPSSAACAPSCAGDLPLPSNTPTFSIKTSPAKARSPINRRGSVSSVSPKPPSSFKMSIRNWVTRTPSSSPPITPPASETKIMSPRKALIPVSQKSSQAEACSESRNRVKRRLDSSCLESVKQKCVKSCNCVTELDGQVENLHLDLCCLAGNQEDLSKDSLGPTKSSKIEGAGTSISEPPSPISPYASESCGTLPLPLRPCGEGSEMVGKENSSPENKNWLLAMAAKRKAENPSPRSPSSQTPNSRRQSGKKLPSPVTITPSSMRKACTAAHRKSQEDFCGPEHSTEL
modifications: FLAG tag
notes: Cdt2 with I709, Y712, and F713 all mutated to alanine

What was measured:
Type in all cases: cell-based, human
[1] = system: MCF7 cells, DNA-damage (CPD) sites; assay: Recruitment of GFP-Cdt2 constructs to DNA-damage sites in MCF7 cells; conditions: MCF7, UV-C 50 J/m^2, GFP fusions; two independent experiments
Text: Figure 2. The C-terminus of Cdt2 mediates Cdt2 recruitment to sites of damage. (A) A schematic drawing of the domain structure of Cdt2 and constructs used. (B) The C-terminal, but not the N-terminal, part of Cdt2 mediates recruitment to DNA damage sites. MCF7 cells transfected with the indicated plasmids were locally UV-C irradiated (50 J/m^2 through 5 μm pore diameter micropore filters), and recruitment of each Cdt2 construct to sites of damage was examined by staining with α-CPD antibody and GFP signal.
For Western blotting, whole-cell lysates were prepared by lysing cell pellets directly in SDS–PAGE buffer. For immunofluorescence, U2OS or HEK293 cells were fixed in 4% paraformaldehyde (PFA; WAKO) for 10 min, permeabilized in 0.25% (vol/vol) Triton X-100 in PBS, and stained with the indicated antibodies as described previously. […] For cyclobutane pyrimidine dimer (CPDs) staining, MCF7 and HeLa cells were fixed in 4% PFA for 10 min, permeabilized in 0.3% Triton X-100 in PBS, and then incubated in 0.5 N NaOH for 5 min for DNA denaturation before immunofluorescence. Alexa488-conjugated anti-mouse and […] anti-rabbit antibodies were used as secondary antibodies with Hoechst 33258 to visualize DNA. […] Protein levels were analysed by ImageJ software.
We used a method to induce DNA photoproducts within localized areas of the cell nucleus as described in Ishii et al (2010). To perform micropore UV irradiation, cells were cultured on cover slips, washed twice with PBS, and subsequently covered with an isopore polycarbonate membrane filter (Millipore) with a pore size of either 3 or 5 μm in diameter, and irradiated. UV irradiation was achieved using a UV lamp (SUV-16, As One, Japan) with a dose rate of 0.4 J/m^2·s, which was monitored with a UV radiometer (UVX Radiometer, UVP) at 254 nm, or with a UV box equipped with a UV-C lamp monitored with a VLX-3W radiometer (Vilber Lourmat) at 254 nm (CX-254 sensor). The filter was removed and cells were either fixed or cultured for the indicated time before fixation, and processed for immunofluorescence. […]

PCNA = assay: Co-immunoprecipitation of PCNA with FLAG-tagged Cdt2 constructs; conditions: for interaction with PCNA (reverse IP, anti-Myc): Myc-PCNA co-transfected, HEK293; for interaction with PCNA (anti-FLAG IP): cross-linked cells, 3FLAG fusions, no UV
Text: Before cell lysate preparation, cells were cross-linked.
Figure 3. […] HEK293 cells were transfected with plasmids expressing the indicated Cdt2 fused to a C-terminal FLAG tag, cross-linked, and precipitated with anti-FLAG antibodies (arrows). […] The bands in the blank lanes for Cul4A blotting correspond to the cross-reacting bands to pre-stained marker. […] HEK293 cells were transfected with the indicated plasmids and treated as in A. * indicates nonspecific bands derived from IgGs. (C) A schematic drawing of the Cdt2 domain structure highlighting the C-terminal PIP box and a sequence alignment of PIP boxes in various organisms. The alanine-changed PIP box mutant of Cdt2 was shown (PIP-3A) together with Cdt1 PIP box. (D) HEK293 cells were transfected with Cdt2^WT or PIP box mutant (Cdt2^PIP-3A) C-terminally fused to a FLAG tag, treated as in B, and Cdt2 was precipitated with anti-FLAG resin.
Control or Cdt2-FLAG expressing 293 cells that were UV irradiated (50 J/m^2), or not UV irradiated, or in the middle S phase (5 h after release from aphidicolon arrest) were fixed with 0.02% formaldehyde for 10 min, lysed using 0.1% Triton X-100-containing modified cytoskeleton (mCSK) buffer (10 mM Pipes, pH 7.9, 100 mM NaCl, 300 mM sucrose, 0.1% [vol/vol] Triton X-100, 1 mM phenylmethylsulfonyl fluoride, 10 mM β-glycerophosphate, 1 mMNa3VO4, 10 mM NaF), and then sonicated. After centrifugation (120,000g, Beckman Type 45Ti rotor, for 20 min at 4°C), the supernatants were mixed with anti-FLAG antibody-conjugated magnetic beads (M8823; Sigma-Aldrich) for 1 h at 4°C to obtain immunoprecipitates. The precipitate was washed with ice-cold 0.1% Triton X-100 containing mCSK buffer and subsequently suspended in SDS sample buffer.

HEK293 cells, PCNA foci = assay: Co-localization of Cdt2 with PCNA foci (S phase) in HEK293 cells; conditions: stable HEK293, asynchronous, pre-extracted
Text: XPA, a component of nucleotide excision repair, staining was used to confirm that similar extents of DNA damage were induced both in Cdt2^WT- and Cdt2^PIP-3A-expressing cells. […] A similar percentage of PCNA-positive S-phase cells was detected both in Cdt2^1–730/WT-expressing cells and Cdt2^PIP-3A-expressing cells (Fig S6). […] More than 80% of PCNA-positive cells were co-stained with Cdt2^WT, with the early S-phase cells displaying stronger Cdt2^WT staining than the late S-phase cells as reported ([Nukina et al, 2018]) (Figs 6B and C, and S6A).
(§1) Figure 6. The Cdt2 PIP box is important for its recruitment to DNA damage sites and replication foci and for poly-ubiquitination activity. (A) HEK293 and stable Cdt2^WT or Cdt2^PIP-3A cells were locally UV irradiated, and stained for XPA and FLAG (Cdt2). XPA-positive spots were examined for FLAG signal, and its frequency was counted (%). More than 50 spots were examined. bar:10 μm. […] Bar: 10 μm. […] (D) Whole-cell extracts were prepared from HEK293 and stably transfected cells of Cdt2^WT or Cdt2^PIP-3A cells, separated into soluble (Sup) and chromatin-containing insoluble (Ppt) fractions, and were examined for indicated proteins. The asterisk indicates nonspecific bands. […]
(§2) For Western blotting, whole-cell lysates were prepared by lysing cell pellets directly in SDS–PAGE buffer. […] Protein levels were analysed by ImageJ software.

[2] = system: HEK293 cells, UV-irradiated sites; assay: Recruitment of FLAG-Cdt2 to UV-irradiated (XPA) sites in HEK293 cells; conditions: stable HEK293 cells, XPA-positive spots
Description: as §1, with “bands. (E) HEK293 and stably transfected cells of Cdt2^WT or Cdt2^PIP-3A were treated with MG132 for 3 h.” for “bands.”
as §2
We used a method to induce DNA photoproducts within localized areas of the cell nucleus as described in Ishii et al (2010). […] UV irradiation was achieved using a UV lamp (SUV-16, As One, Japan) with a dose rate of 0.4 J/m^2·s, which was monitored with a UV radiometer (UVX Radiometer, UVP) at 254 nm, or with a UV box equipped with a UV-C lamp monitored with a VLX-3W radiometer (Vilber Lourmat) at 254 nm (CX-254 sensor). […]

Row | Molecule | recruitment to DNA-damage sites [1] | interaction with PCNA (reverse IP, anti-Myc) (PCNA) | interaction with PCNA (anti-FLAG IP) (PCNA) | PCNA-positive cells co-stained with Cdt2 (HEK293 cells, PCNA foci) | recruitment to UV-irradiated sites [2] | Cdt2 signal in PCNA foci (HEK293 cells, PCNA foci)
1 | Cdt2: Cdt2 tagged with GFP, transiently expressed in MCF7 cells | robustly detected at DNA-damage sites | co-precipitated with Myc-PCNA | interact with PCNA | More than 80% | – | –
2 | B1 | – | not detected in the precipitates | lost almost entirely | – | not recruited to UV-irradiated sites | almost no signal was detected
